Reference: US11220690B2, “Formulation” (ATLANTIC PHARMACEUTICALS (HOLDINGS) LTD, priority 2017, dated 2022)

How the values were obtained:
[1] = tested on: pigmented C57BL/6N mice; test: Murine model of dry eye by scopolamine administration; type: in vivo, Mouse; conditions: for Corneal fluorescein staining score (mean ± SD): 5 μL in both eyes, one dose per day
Text: In a model of mice, the application of transdermal scopolamine patches to the mid-tail is used to reduce aqueous tear production and thus mimic lacrimal gland insufficiency. The function of scopolamine is to induce a pharmacologic blockade of cholinergic receptors in the lacrimal gland and therefore to decrease aqueous production. The desiccation is amplified by adding environmental stress Animals are exposed to a low-humidity environment and constant airflow.
• Species: Mouse. • Strain: C57BL/6N (pigmented). • Age: Approximately 6-7 weeks (at the first day of induction). • Number/sex: 55 females (study 40; reserve 15).
Mice were treated with transdermal scopolamine administration (0.5 mg/72 h; Scopoderm TTS®). The transdermal scopolamine patch was wrapped near the tail base of the mouse, secured with cellophane tape. Patches were reapplied every 48 hours.
Mice were randomized into 4 groups of 10 animals. The study was divided into 2 experimental sets with 5 animals of each group represented.
All test items, control items and comparator item were instilled in both eyes (5 μL per administration), using a micropipette.
Tear production and corneal defects were assessed at baseline, on Days 3, 6 and 10 using phenol red thread (PRT) and corneal fluorescence staining (CFS), respectively, for each animal of the 4 groups.
A) Measurement of Aqueous Tear Production PRT Test. • Tear production was measured with the PRT test (Zone-Quick, FCI-Ophthalmics) on both eyes, before administration on Day 3 and at least one hour after the second treatment for the other days of the study. The thread was placed in the lateral cantus of the lateral conjunctival fornix for 30 seconds. The thread wet by tears would turn red, indicated aqueous tear production.
B) Corneal Fluorescein Staining (CFS) • At the different time points the measurement was performed before administration on Day 3 and at least one hour after the second treatment for the other days of the study. The eyes of the animals from all groups were examined by slit-lamp observation using blue light after 0.5% fluorescein eye drop instillation (0.5 μL). Punctuate staining was recorded with the standardized National Eye Institute (NEI) grading system giving a 0-3 score to each of the 5 areas in which the corneas were divided. Results: Animal Behaviour and Body Weights

[2] = target: T1, TLR9 (Homo sapiens, UniProt Q9NR96); test: TLR9 activation (agonist) screen, TLR9/NF-kB luciferase reporter HEK 293 cell line; type: cell-based; design: host or cells: HEK 293 (TLR9/NF-kB luciferase reporter line); conditions: up to concentrations as high as 100 uM, 16 h treatment
T1 sequence (Q9NR96 26-1032): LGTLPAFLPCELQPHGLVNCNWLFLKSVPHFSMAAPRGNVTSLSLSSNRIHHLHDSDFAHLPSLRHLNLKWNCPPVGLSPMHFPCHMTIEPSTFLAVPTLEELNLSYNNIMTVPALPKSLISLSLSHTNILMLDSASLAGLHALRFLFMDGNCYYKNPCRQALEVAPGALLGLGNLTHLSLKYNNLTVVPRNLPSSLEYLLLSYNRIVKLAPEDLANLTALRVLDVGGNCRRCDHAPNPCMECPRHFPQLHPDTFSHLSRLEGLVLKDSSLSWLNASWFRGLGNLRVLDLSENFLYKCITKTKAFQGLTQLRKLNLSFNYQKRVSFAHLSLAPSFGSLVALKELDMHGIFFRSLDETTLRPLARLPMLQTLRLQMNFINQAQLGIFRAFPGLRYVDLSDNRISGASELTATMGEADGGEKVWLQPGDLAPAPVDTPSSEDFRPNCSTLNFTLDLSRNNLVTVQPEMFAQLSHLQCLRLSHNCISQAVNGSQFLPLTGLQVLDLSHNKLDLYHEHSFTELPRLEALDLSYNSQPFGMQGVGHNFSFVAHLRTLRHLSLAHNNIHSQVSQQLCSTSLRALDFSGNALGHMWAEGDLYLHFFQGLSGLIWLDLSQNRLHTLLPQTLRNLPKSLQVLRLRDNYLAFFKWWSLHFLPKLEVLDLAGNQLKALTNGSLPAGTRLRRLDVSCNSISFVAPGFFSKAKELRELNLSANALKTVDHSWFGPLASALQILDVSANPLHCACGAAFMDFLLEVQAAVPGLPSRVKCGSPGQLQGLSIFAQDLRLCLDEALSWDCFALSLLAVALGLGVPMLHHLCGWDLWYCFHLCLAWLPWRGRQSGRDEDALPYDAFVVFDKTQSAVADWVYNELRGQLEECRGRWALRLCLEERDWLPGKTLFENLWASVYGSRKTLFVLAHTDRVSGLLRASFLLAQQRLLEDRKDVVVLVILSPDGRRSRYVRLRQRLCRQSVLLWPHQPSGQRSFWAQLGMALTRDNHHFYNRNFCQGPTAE
Procedure: […] Briefly, the TLR9/NF-kB luciferase reporter HEK 293 cell line (Abeomics, San Diego, Calif.) was plated in 96-well white solid plates at 5×10^4 cells per well for 16 h. […] Luciferase activity was then measured and analyzed.

[3] = target: T1, TLR9; test: Inhibition of TLR9-mediated NF-kB induction activated by CpG ODN2006, luciferase reporter HEK 293 cell line; type: cell-based; design: host or cells: HEK 293 (TLR9/NF-kB luciferase reporter line)
Procedure: SEQ ID NO:1 was next screened for dose responsive inhibition activity to determine the IC50 against TLR9-mediated NF-kB induction at seven different doses (0.1, 1, 5, 10, 25, 50 and 100 μM) in triplicate. Briefly, the TLR9/NF-kB luciferase reporter HEK 293 cell line was plated in 96-well white solid plates at 5×10^4 cells per well for 16 h. Cells were pretreated with different doses of SEQ ID NO:1 in triplicate for 1 h. Cells were then treated with 20 ug/ml of CpG ODN2006 to activate TLR9. After 16 h, luciferase activity was measured and analyzed.

[4] = Circular Dichroism (CD) spectroscopy, thermal stability of secondary structure; type: physicochemical
Text: SEQ ID NO:1 was therefore subjected to Circular Dichroism (CD) spectroscopy to gather information about the possible secondary structure. CD of DNA can be utilized to detect all 3 major forms of duplex structure (B, A and Z) and is sensitive to conditions that disrupt the structure such a heating. Of interest was the stability of any secondary structure detected at or above physiologic temperatures. Shown in FIG. 6 is the CD spectra of sample SEQ ID NO:1 in ddH20 at 4 C.
Additional thermal denaturation of the putative duplex was also studied in the presence of Na^+ at concentrations of 50 mM and 150 mM. Sodium fluoride was used as Cl^− ions interfere with the CD spectra in this UV region.
Additional experiments were conducted to test the influence of Mg^++ and polyamines on the stability of the structure.

[5] = target: T1, TLR9; test: Inhibition of TLR-9 activated by E. coli genomic DNA; type: cell-based; conditions: E. coli genomic DNA as activator of TLR-9
Text: While the data of FIG. 4 indicate that SEQ ID NO:1 is more likely to form a homodimer than a heterodimer with ODN2006, additional experiments tested the antagonist activity of SEQ ID NO:1 in the presence of E. coli genomic DNA as the activator.

## alicaforsen (GCCCAAGCTGGCATCCGTCA; chemistry not given here; listed as Homo sapiens) [SEQ ID NO:1]
[1]; Day 6, alicaforsen 1 mM
  Corneal fluorescein staining score (mean ± SD): 10.5 ± 2.6
[1]; Day 6, alicaforsen 10 mM
  Corneal fluorescein staining score (mean ± SD): 10.8 ± 2.0
[1]; Day 10, alicaforsen 1 mM, listed as ALICAFORSEN
  Corneal fluorescein staining score (mean ± SD): 9.3 ± 3.1
[1]; Day 10, alicaforsen 1 mM, listed as alicaforsen
  Corneal fluorescein staining score (mean ± SD): lower than the Vehicle group
[1]; Day 10, alicaforsen 10 mM, listed as ALICAFORSEN
  Corneal fluorescein staining score (mean ± SD): 9.7 ± 2.2
[1]; Day 10, alicaforsen 10 mM, listed as alicaforsen
  Corneal fluorescein staining score (mean ± SD): lower than the Vehicle group
[1]; multiple topical administrations, 1 mM and 10 mM
  clinical tolerability: clinically well tolerated
[2]
  agonist activity (TLR9 activation): devoid of agonist activity
[3]; ODN2006 as activator
  TLR-9 antagonist activity: antagonist of TLR-9
[3]; comparative dose responses, FIG. 3
  concentrations required for TLR-9 antagonism compared with inhibition of ICAM-1 expression: requires higher concentrations than the inhibition of ICAM-1 expression
[4]; 50 and 150 mM sodium, samples cooled back to 20° C. after heating
  intensity of the 190 nm peak after cooling back: returned to pre-heated levels
[4]; both 50 and 150 mM sodium (sodium fluoride), to 40° C.
  structure retained (intensity of the 190 nm peak) on heating: at least 50%
[4]; in ddH20, heating to 80° C.
  loss of signal strength of positive CD band at 190 nm: > 85%
[4]; spermine at 5 mM in the presence of 50 mM Na+
  effect of spermine on secondary structure (CD spectra): completely abolished the secondary structure
[5]
  antagonist activity in the presence of E. coli genomic DNA as the activator: remained antagonistic
